Test results from PubChem BioAssay (NCI).
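1) Cells in 96-well plates. 2) Compound, 48 h, 5 concentrations. 3) Linear interpolation between surrounding doses. 4) Unreached endpoint = highest concentration. At the TGI there is no net growth.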

Tests used:
Assay in all cases: DTP human tumour cell line panel, 48 h
SF-539 CNS = tested on: SF-539 CNS
HCT-116 colon = tested on: HCT-116 colon
COLO 205 colon = tested on: COLO 205 colon
HL-60(TB) leukemia = tested on: HL-60(TB) leukemia
UO-31 renal = tested on: UO-31 renal
SW-620 colon = tested on: SW-620 colon
DU-145 prostate = tested on: DU-145 prostate
MDA-MB-231 breast = tested on: MDA-MB-231 breast
SNB-19 CNS = tested on: SNB-19 CNS
ACHN renal = tested on: ACHN renal
MDA-N = tested on: MDA-N
T-47D breast = tested on: T-47D breast
UACC-257 melanoma = tested on: UACC-257 melanoma
RXF 393 renal = tested on: RXF 393 renal
M14 melanoma = tested on: M14 melanoma
A498 renal = tested on: A498 renal
OVCAR-3 ovarian = tested on: OVCAR-3 ovarian
HT29 colon = tested on: HT29 colon
NCI-H226 lung = tested on: NCI-H226 lung
HS 578T breast = tested on: HS 578T breast
MOLT-4 leukemia = tested on: MOLT-4 leukemia
K-562 leukemia = tested on: K-562 leukemia
MDA-MB-435 = tested on: MDA-MB-435
786-0 renal = tested on: 786-0 renal
TK-10 renal = tested on: TK-10 renal
CAKI-1 renal = tested on: CAKI-1 renal
IGROV1 ovarian = tested on: IGROV1 ovarian
HCT-15 colon = tested on: HCT-15 colon
SK-OV-3 ovarian = tested on: SK-OV-3 ovarian
SK-MEL-5 melanoma = tested on: SK-MEL-5 melanoma
SNB-75 CNS = tested on: SNB-75 CNS
PC-3 prostate = tested on: PC-3 prostate
SK-MEL-2 melanoma = tested on: SK-MEL-2 melanoma
SF-268 CNS = tested on: SF-268 CNS
MALME-3M melanoma = tested on: MALME-3M melanoma
OVCAR-8 ovarian = tested on: OVCAR-8 ovarian
A549 NSCLC = tested on: A549 NSCLC
EKVX NSCLC = tested on: EKVX NSCLC
SN12C renal = tested on: SN12C renal
HCC-2998 colon = tested on: HCC-2998 colon
SF-295 CNS = tested on: SF-295 CNS
U251 CNS = tested on: U251 CNS
KM12 colon = tested on: KM12 colon
CCRF-CEM leukemia = tested on: CCRF-CEM leukemia
NCI/ADR-RES ovarian = tested on: NCI/ADR-RES ovarian
UACC-62 melanoma = tested on: UACC-62 melanoma
NCI-H522 lung = tested on: NCI-H522 lung
BT-549 breast = tested on: BT-549 breast
NCI-H23 lung = tested on: NCI-H23 lung
NCI-H460 lung = tested on: NCI-H460 lung
HOP-62 NSCLC = tested on: HOP-62 NSCLC
MCF7 breast = tested on: MCF7 breast
LOX IMVI melanoma = tested on: LOX IMVI melanoma
OVCAR-5 ovarian = tested on: OVCAR-5 ovarian
SR leukemia = tested on: SR leukemia
OVCAR-4 ovarian = tested on: OVCAR-4 ovarian
RPMI-8226 leukemia = tested on: RPMI-8226 leukemia
HOP-92 NSCLC = tested on: HOP-92 NSCLC
SK-MEL-28 melanoma = tested on: SK-MEL-28 melanoma

SMILES: CC(C)(C)[Si](C)(C)OCC1OC(n2cc(F)c(=O)[nH]c2=O)CC1O[Si](C)(C)C(C)(C)C (stereo not given)
- TGI (SF-539 CNS): 30.7 µM
- TGI (HCT-116 colon): 19.8 µM
- TGI (COLO 205 colon): 19.5 µM
- TGI (HL-60(TB) leukemia): 12.5 µM
- TGI (UO-31 renal): 23 µM
- TGI (SW-620 colon): 23.1 µM
- TGI (DU-145 prostate): 11.3 µM
- TGI (MDA-MB-231 breast): 22 µM
- TGI (SNB-19 CNS): 25.3 µM
- TGI (ACHN renal): 21.8 µM
- TGI (MDA-N): 18.4 µM
- TGI (T-47D breast): 12.7 µM
- TGI (UACC-257 melanoma): 15.9 µM
- TGI (RXF 393 renal): 16.2 µM
- TGI (M14 melanoma): 30.9 µM
- TGI (A498 renal): 21.1 µM
- TGI (OVCAR-3 ovarian): 32.5 µM
- TGI (HT29 colon): > 100 µM
- TGI (NCI-H226 lung): 42.9 µM
- TGI (HS 578T breast): 26.4 µM
- TGI (MOLT-4 leukemia): 22 µM
- TGI (K-562 leukemia): 16 µM
- TGI (MDA-MB-435): 26.5 µM
- TGI (786-0 renal): 20.9 µM
- TGI (TK-10 renal): 13.9 µM
- TGI (CAKI-1 renal): 25.6 µM
- TGI (IGROV1 ovarian): 19.7 µM
- TGI (HCT-15 colon): 20.4 µM
- TGI (SK-OV-3 ovarian): 28.3 µM
- TGI (SK-MEL-5 melanoma): 17.1 µM
- TGI (SNB-75 CNS): 15.9 µM
- TGI (PC-3 prostate): 14.2 µM
- TGI (SK-MEL-2 melanoma): 29.7 µM
- TGI (SF-268 CNS): 29.8 µM
- TGI (MALME-3M melanoma): 31.2 µM
- TGI (OVCAR-8 ovarian): 35.7 µM
- TGI (A549 NSCLC): 25.6 µM
- TGI (EKVX NSCLC): 21.7 µM
- TGI (SN12C renal): 9.43 µM
- TGI (HCC-2998 colon): 3.48 µM
- TGI (SF-295 CNS): 21.4 µM
- TGI (U251 CNS): 22.5 µM
- TGI (KM12 colon): 14.7 µM
- TGI (CCRF-CEM leukemia): 10.2 µM
- TGI (NCI/ADR-RES ovarian): 35.6 µM
- TGI (UACC-62 melanoma): 15.7 µM
- TGI (NCI-H522 lung): 12.7 µM
- TGI (BT-549 breast): 17 µM
- TGI (NCI-H23 lung): 19.6 µM
- TGI (NCI-H460 lung): 15.7 µM
- TGI (HOP-62 NSCLC): 30 µM
- TGI (MCF7 breast): 24.9 µM
- TGI (LOX IMVI melanoma): 20 µM
- TGI (OVCAR-5 ovarian): 33 µM
- TGI (SR leukemia): 7.08 µM
- TGI (OVCAR-4 ovarian): 17.4 µM
- TGI (RPMI-8226 leukemia): 12.9 µM

SMILES: O=c1[nH]c(=O)n(C2CC(O)C(COP(=O)(O)OC3CC(n4cc(F)c(=O)[nH]c4=O)OC3COP(=O)(O)OC3CC(n4cc(F)c(=O)[nH]c4=O)OC3COP(=O)(O)OC3CC(n4cc(F)c(=O)[nH]c4=O)OC3COP(=O)(O)OC3CC(n4cc(F)c(=O)[nH]c4=O)OC3COP(=O)(O)OC3CC(n4cc(F)c(=O)[nH]c4=O)OC3COP(=O)(O)OC3CC(n4cc(F)c(=O)[nH]c4=O)OC3COP(=O)(O)OC3CC(n4cc(F)c(=O)[nH]c4=O)OC3COP(=O)(O)OC3CC(n4cc(F)c(=O)[nH]c4=O)OC3COP(=O)(O)OC3CC(n4cc(F)c(=O)[nH]c4=O)OC3CO)O2)cc1F (stereo not given)
- TGI (SF-539 CNS): < 0.005 µM
- TGI (HCT-116 colon): > 50 µM
- TGI (COLO 205 colon): > 50 µM
- TGI (HL-60(TB) leukemia): > 50 µM
- TGI (UO-31 renal): > 50 µM
- TGI (SW-620 colon): > 50 µM
- TGI (DU-145 prostate): > 50 µM
- TGI (MDA-MB-231 breast): > 50 µM
- TGI (SNB-19 CNS): > 50 µM
- TGI (HOP-92 NSCLC): > 50 µM
- TGI (ACHN renal): > 50 µM
- TGI (MDA-N): > 50 µM
- TGI (T-47D breast): > 50 µM
- TGI (UACC-257 melanoma): > 50 µM
- TGI (RXF 393 renal): > 50 µM
- TGI (M14 melanoma): > 50 µM
- TGI (A498 renal): 1.12 µM
- TGI (HT29 colon): > 50 µM
- TGI (NCI-H226 lung): > 50 µM
- TGI (HS 578T breast): > 50 µM
- TGI (MOLT-4 leukemia): > 50 µM
- TGI (K-562 leukemia): > 50 µM
- TGI (MDA-MB-435): > 50 µM
- TGI (786-0 renal): > 50 µM
- TGI (TK-10 renal): > 50 µM
- TGI (CAKI-1 renal): > 50 µM
- TGI (IGROV1 ovarian): > 50 µM
- TGI (HCT-15 colon): > 50 µM
- TGI (SK-OV-3 ovarian): > 50 µM
- TGI (SK-MEL-5 melanoma): > 50 µM
- TGI (SNB-75 CNS): > 50 µM
- TGI (PC-3 prostate): > 50 µM
- TGI (SK-MEL-2 melanoma): > 50 µM
- TGI (SF-268 CNS): > 50 µM
- TGI (OVCAR-8 ovarian): > 50 µM
- TGI (A549 NSCLC): > 50 µM
- TGI (EKVX NSCLC): > 50 µM
- TGI (SN12C renal): > 50 µM
- TGI (HCC-2998 colon): > 50 µM
- TGI (SF-295 CNS): > 10 µM
- TGI (U251 CNS): > 50 µM
- TGI (KM12 colon): > 50 µM
- TGI (NCI/ADR-RES ovarian): > 50 µM
- TGI (BT-549 breast): > 50 µM
- TGI (NCI-H23 lung): > 50 µM
- TGI (HOP-62 NSCLC): > 50 µM
- TGI (MCF7 breast): > 50 µM
- TGI (SK-MEL-28 melanoma): > 50 µM
- TGI (LOX IMVI melanoma): > 50 µM
- TGI (OVCAR-5 ovarian): > 50 µM
- TGI (SR leukemia): > 50 µM
- TGI (OVCAR-4 ovarian): > 50 µM
- TGI (RPMI-8226 leukemia): > 50 µM
